Results reported in US20210045385A1, “PYRIDAZINONE-SUBSTITUTED KETOXIMES AS HERBICIDES” (FMC Corporation, priority 2018, published 2021).

Columns and labels:
Assay type in all cases: in vivo
kochia (Bassia scoparia) [1] = experiment: Test C preemergence, visual plant response rating
Method in brief: (§1)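 Visual injury on a 0 (no effect) to 100 (complete control) scale versus untreated controls, scored approximately 10 d after treatment under greenhouse conditions. Treatments used surfactant-containing non-phytotoxic solvent formulations, sprayed onto loam–sand soil preemergence or onto one- to two-leaf plants 2–10 cm tall postemergence.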

[2] = tested on: Italian ryegrass (Lolium mutiflorum); experiment: Test C preemergence, visual plant response rating
Method in brief: as §1

[3] = tested on: ragweed (common ragweed, Ambrosia artemisiifolia); experiment: Test C preemergence, visual plant response rating
Method in brief: as §1

[4] = tested on: foxtail, giant (giant foxtail, Setaria faberi); experiment: Test C preemergence, visual plant response rating
Method in brief: as §1

[5] = tested on: pigweed (Amaranthus retroflexus); experiment: Test C preemergence, visual plant response rating
Method in brief: as §1

[6] = tested on: barnyardgrass (Echinochloa crus-galli); experiment: Test C preemergence, visual plant response rating
Method in brief: as §1

kochia (Bassia scoparia) [7] = experiment: Test C postemergence, visual plant response rating
Method in brief: as §1

[8] = tested on: Italian ryegrass (Lolium mutiflorum); experiment: Test C postemergence, visual plant response rating
Method in brief: as §1

[9] = tested on: ragweed (common ragweed, Ambrosia artemisiifolia); experiment: Test C postemergence, visual plant response rating
Method in brief: as §1

[10] = tested on: blackgrass (Alopecurus myosuroides); experiment: Test C postemergence, visual plant response rating
Method in brief: as §1

[11] = tested on: wheat (Triticum aestivum); experiment: Test C postemergence, visual plant response rating
Method in brief: as §1

corn (Zea mays) = experiment: Test C postemergence, visual plant response rating
Method in brief: as §1

[12] = tested on: galium (catchweed bedstraw, Galium aparine); experiment: Test C postemergence, visual plant response rating
Method in brief: as §1

[13] = tested on: foxtail, giant (giant foxtail, Setaria faberi); experiment: Test C postemergence, visual plant response rating
Method in brief: as §1

[14] = tested on: pigweed (Amaranthus retroflexus); experiment: Test C postemergence, visual plant response rating
Method in brief: as §1

[15] = tested on: barnyardgrass (Echinochloa crus-galli); experiment: Test C postemergence, visual plant response rating
Method in brief: as §1

rice (Oryza sativa) = experiment: Test D flooded paddy test, visual plant response rating; conditions: 250 g ai/ha, scale 0 to 100 (0 no effect, 100 complete control), 13 to 15 d
Method in brief: (§2)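 Visual injury scores, 0 (no effect) to 100 (complete control), were assigned after 13 to 15 d in the greenhouse by comparison with controls. Test compounds had been added to paddy water covering soil by 3 cm at the 2-leaf stage.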

[16] = tested on: duck salad (Heteranthera limosa); experiment: as above; conditions: 250 g ai/ha, scale 0 to 100 (0 no effect, 100 complete control), 13 to 15 d
Method in brief: as §2

[17] = tested on: sedge umbrella (small-flower umbrella sedge, Cyperus difformis); experiment: as above; conditions: 250 g ai/ha, scale 0 to 100 (0 no effect, 100 complete control), 13 to 15 d
Method in brief: as §2

[18] = tested on: barnyardgrass (Echinochloa crus-galli); experiment: as above; conditions: 250 g ai/ha, scale 0 to 100 (0 no effect, 100 complete control), 13 to 15 d
Method in brief: as §2

[19] = Test C, 31 g ai/ha, 0 is no effect, 100 is complete control
[20] = Test C, 125 g ai/ha, 0 is no effect, 100 is complete control
[21] = Test C, postemergence, 125 g ai/ha

| Structure (SMILES) | Kochia plant response rating (0 to 100 scale) (kochia (Bassia scoparia) [1]; [19]) | Ryegrass, Italian plant response rating (0 to 100 scale) [2, 19] | Ragweed plant response rating (0 to 100 scale) [3, 19] | Foxtail, Giant plant response rating (0 to 100 scale) [4, 19] | Pigweed plant response rating (0 to 100 scale) [5, 19] | Barnyardgrass plant response rating (0 to 100 scale) [6, 19] | Kochia plant response rating (0 to 100 scale) (kochia (Bassia scoparia) [7]; Postemergence, 31 g ai/ha) | Kochia plant response rating (0 to 100 scale) (kochia (Bassia scoparia) [7]; [21]) | Ryegrass, Italian plant response rating (0 to 100 scale) ([8]; Postemergence, 31 g ai/ha) | Ryegrass, Italian plant response rating (0 to 100 scale) [8, 21] | Ragweed plant response rating (0 to 100 scale) ([9]; Postemergence, 31 g ai/ha) | Ragweed plant response rating (0 to 100 scale) [9, 21] | Blackgrass plant response rating (0 to 100 scale) ([10]; Postemergence, 31 g ai/ha) | Blackgrass plant response rating (0 to 100 scale) [10, 21] | Wheat plant response rating (0 to 100 scale) ([11]; Postemergence, 31 g ai/ha) | Wheat plant response rating (0 to 100 scale) [11, 21] | Corn plant response rating (0 to 100 scale) (corn (Zea mays); Postemergence, 31 g ai/ha) | Corn plant response rating (0 to 100 scale) (corn (Zea mays); [21]) | Galium plant response rating (0 to 100 scale) ([12]; Postemergence, 31 g ai/ha) | Galium plant response rating (0 to 100 scale) [12, 21] | also measured |
| --- | --- | --- | --- | --- | --- | --- | --- | --- | --- | --- | --- | --- | --- | --- | --- | --- | --- | --- | --- | --- | --- |
| CO/N=C(/c1c(O)cnn(C)c1=O)c1ccc(F)c2ccccc12 [Compound 304] | 0 | 0 | 0 | 0 | 10 | 0 | 30 | 50 | 20 | 60 | 0 | 10 | 0 | 0 | 0 | 0 | 10 | 20 | 10 | 80 | Kochia plant response rating (0 to 100 scale) (kochia (Bassia scoparia) [1]; [20]): 0; Ryegrass, Italian plant response rating (0 to 100 scale) [2, 20]: 20; Ragweed plant response rating (0 to 100 scale) [3, 20]: 40; Foxtail, Giant plant response rating (0 to 100 scale) [4, 20]: 10; Pigweed plant response rating (0 to 100 scale) [5, 20]: 20; Barnyardgrass plant response rating (0 to 100 scale) [6, 20]: 0; Foxtail, Giant plant response rating (0 to 100 scale) ([13]; Postemergence, 31 g ai/ha): 0; Foxtail, Giant plant response rating (0 to 100 scale) [13, 21]: 20; Pigweed plant response rating (0 to 100 scale) ([14]; Postemergence, 31 g ai/ha): 50; Pigweed plant response rating (0 to 100 scale) [14, 21]: 80; Barnyardgrass plant response rating (0 to 100 scale) ([15]; Postemergence, 31 g ai/ha): 0; Barnyardgrass plant response rating (0 to 100 scale) [15, 21]: 0; Plant response rating, Rice (Flood) (rice (Oryza sativa)): 0; Plant response rating, Ducksalad (Flood) [16]: 0; Plant response rating, Sedge, Umbrella (Flood) [17]: 0; Plant response rating, Barnyardgrass (Flood) [18]: 0 |
| CO/N=C(/c1cc(F)cc(F)c1C)c1c(O)c(C)nn(C)c1=O [Compound 305] | 10 | 0 | 20 | 10 | 30 | 10 | 50 | 70 | 10 | 80 | 30 | 70 | 10 | 20 | 0 | 0 | 0 | 0 | 70 | 70 | Kochia plant response rating (0 to 100 scale) (kochia (Bassia scoparia) [1]; 125 g ai/ha): 30; Ryegrass, Italian plant response rating (0 to 100 scale) ([2]; 125 g ai/ha): 30; Ragweed plant response rating (0 to 100 scale) ([3]; 125 g ai/ha): 20; Foxtail, Giant plant response rating (0 to 100 scale) ([4]; 125 g ai/ha): 30; Pigweed plant response rating (0 to 100 scale) ([5]; 125 g ai/ha): 70; Barnyardgrass plant response rating (0 to 100 scale) ([6]; 125 g ai/ha): 20; Foxtail, Giant plant response rating (0 to 100 scale) ([13]; Postemergence, 31 g ai/ha): 30; Foxtail, Giant plant response rating (0 to 100 scale) [13, 21]: 50; Pigweed plant response rating (0 to 100 scale) ([14]; Postemergence, 31 g ai/ha): 60; Pigweed plant response rating (0 to 100 scale) [14, 21]: 90; Barnyardgrass plant response rating (0 to 100 scale) ([15]; Postemergence, 31 g ai/ha): 20; Barnyardgrass plant response rating (0 to 100 scale) [15, 21]: 30; Plant response rating, Rice (Flood) (rice (Oryza sativa)): 0; Plant response rating, Ducksalad (Flood) [16]: 0; Plant response rating, Sedge, Umbrella (Flood) [17]: 0; Plant response rating, Barnyardgrass (Flood) [18]: 0 |
